Converted amounts (≈) assume the structure as drawn. The source made the active and inactive calls. The rule behind the calls is not given here.
How the values were obtained:
Tetranychus urticae [1] = assay: Acaricidal activity against Tetranychus urticae (two-spotted spider mite) in compound treated snap bean leaves assessed as adult mortality measured after 2 days by leaf disk method; format: functional; details: foliar, 48 h
Tetranychus urticae [2] = assay: Acaricidal activity against Tetranychus urticae (two-spotted spider mite) in compound treated snap bean leaves assessed as egg mortality measured after 2 days by leaf disk method; format: functional; details: foliar, 48 h
Tetranychus urticae [3] = assay: Acaricidal activity against Tetranychus urticae (two-spotted spider mite) on strawberry plant assessed as average number of adult females mites at 1000 fold dilutions measured after 16 days (reference value: 100%); format: functional
Tetranychus urticae [4] = assay: Acaricidal activity against Tetranychus urticae (two-spotted spider mite) on strawberry plant assessed as average number of adult females mites at 1000 fold dilutions measured after 23 days (reference value: 100%); format: functional
Tetranychus urticae [5] = assay: Acaricidal activity against Tetranychus urticae (two-spotted spider mite) on strawberry plant assessed as average number of adult females mites at 1000 fold dilutions measured after 8 days (reference value: 100%); format: functional
Tetranychus urticae [6] = assay: Acaricidal activity against Tetranychus urticae (two-spotted spider mite) on strawberry plant assessed as average number of adult females mites at 1000 fold dilutions measured after 30 days (reference value: 100%); format: functional
Tetranychus urticae [7] = assay: Acaricidal activity against Tetranychus urticae (two-spotted spider mite) on strawberry plant assessed as average number of adult females mites at 1000 fold dilutions measured after 3 days (reference value: 100%); format: functional
Tetranychus urticae [8] = assay: Acaricidal activity against kelthane-sensitive strain Tetranychus urticae (two-spotted spider mite) in compound treated snap bean leaves assessed as egg mortality measured after 2 days by leaf disk method; format: functional; details: foliar, 48 h
Tetranychus urticae [9] = assay: Ratio of LC50 for kelthane-resitant strain Tetranychus urticae (two-spotted spider mite) to LC50 for kelthane-sensitive strain Tetranychus urticae assessed as adult mortality measured after 2 days by leaf disk method; format: functional
Tetranychus urticae [10] = assay: Acaricidal activity against kelthane-resitant strain Tetranychus urticae (two-spotted spider mite) in compound treated snap bean leaves assessed as egg mortality measured after 2 days by leaf disk method; format: functional; details: foliar, 48 h
Tetranychus urticae [11] = assay: Ratio of LC50 for kelthane-resitant strain Tetranychus urticae (two-spotted spider mite) to LC50 for kelthane-sensitive strain Tetranychus urticae (two-spotted spider mite) assessed as egg mortality measured after 2 days by leaf disk method; format: functional
Tetranychus urticae [12] = assay: Acaricidal activity against kelthane-resitant strain Tetranychus urticae (two-spotted spider mite) in compound treated snap bean leaves assessed as adult mortality measured after 2 days by leaf disk method; format: functional; details: foliar, 48 h
Tetranychus urticae [13] = assay: Acaricidal activity against kelthane-sensitive strain Tetranychus urticae (two-spotted spider mite) in compound treated snap bean leaves assessed as adult mortality measured after 2 days by leaf disk method; format: functional; details: foliar, 48 h
Tetranychus urticae [14] = assay: Acaricidal activity against Tetranychus urticae (two-spotted spider mite) on strawberry plant assessed as average number of adult females mites at 800 fold dilutions measured after 3 days (reference value: 100%); format: functional
Tetranychus urticae [15] = assay: Acaricidal activity against Tetranychus urticae (two-spotted spider mite) on strawberry plant assessed as average number of adult females mites at 800 fold dilutions measured after 8 days (reference value: 100%); format: functional
Tetranychus urticae [16] = assay: Acaricidal activity against Tetranychus urticae (two-spotted spider mite) on strawberry plant assessed as average number of adult females mites at 400 fold dilutions measured after 8 days (reference value: 100%); format: functional
Tetranychus urticae [17] = assay: Acaricidal activity against Tetranychus urticae (two-spotted spider mite) on strawberry plant assessed as average number of adult females mites at 800 fold dilutions measured after 16 days (reference value: 100%); format: functional
Tetranychus urticae [18] = assay: Acaricidal activity against Tetranychus urticae (two-spotted spider mite) on strawberry plant assessed as average number of adult females mites at 400 fold dilutions measured after 16 days (reference value: 100%); format: functional
Tetranychus urticae [19] = assay: Acaricidal activity against Tetranychus urticae (two-spotted spider mite) on strawberry plant assessed as average number of adult females mites at 400 fold dilutions measured after 30 days (reference value: 100%); format: functional
Tetranychus urticae [20] = assay: Acaricidal activity against Tetranychus urticae (two-spotted spider mite) on strawberry plant assessed as average number of adult females mites at 800 fold dilutions measured after 23 days (reference value: 100%); format: functional
Tetranychus urticae [21] = assay: Acaricidal activity against Tetranychus urticae (two-spotted spider mite) on strawberry plant assessed as average number of adult females mites at 400 fold dilutions measured after 23 days (reference value: 100%); format: functional
Tetranychus urticae [22] = assay: Acaricidal activity against Tetranychus urticae (two-spotted spider mite) on strawberry plant assessed as average number of adult females mites at 400 fold dilutions measured after 3 days (reference value: 100%); format: functional
Panonychus citri = assay: Acaricidal activity against Panonychus citri in compound treated lemon leaf assessed as adult mortality; format: functional, organism-based
Tetranychus urticae [23] = assay: Acaricidal activity against Tetranychus urticae (two-spotted spider mite) on strawberry plant assessed as average number of adult females mites at 800 fold dilutions measured after 30 days (reference value: 100%); format: functional

Compound	LC50 (Tetranychus urticae [1]) [µg/mL]	LC50 (Tetranychus urticae [2]) [µg/mL]	other results
Fc1cc(-c2nc3ccc(Br)cc3s2)c(F)c(F)c1F	93 (≈ 257 µM)	555 (≈ 1530 µM)	
Fc1cc(-c2nc3cc(Cl)ccc3o2)c(F)c(F)c1F	100 (≈ 332 µM)	202 (≈ 670 µM)	
Cc1ccc2oc(-c3ccc(F)cc3)nc2c1	> 500	> 500	
Cc1cc(C)c2oc(-c3cc(F)c(F)c(Cl)c3F)nc2c1	< 31	> 500	
Cc1ccc2nc(-c3cc(F)c(F)c(Cl)c3F)sc2c1	155 (≈ 494 µM)	287 (≈ 915 µM)	
Fc1c(F)c(F)c(-c2nc3ccccc3s2)c(F)c1F [2-(PERFLUOROPHENYL)BENZO[D]THIAZOLE]	26 (≈ 86.3 µM)	124 (≈ 412 µM)	
CCc1nn(C)c(C(=O)NCc2ccc(C(C)(C)C)cc2)c1Cl [TEBUFENPYRAD]			Activity (Tetranychus urticae [3]): 5.6%; Activity (Tetranychus urticae [4]): 13.5%; Activity (Tetranychus urticae [5]): 7.8%; Activity (Tetranychus urticae [6]): 4.5%; Activity (Tetranychus urticae [7]): 4.3%
Cc1ccc2nc(-c3cc(F)c(F)c(Cl)c3F)oc2c1	48 (≈ 161 µM)	> 500	
Cc1ccc2nc(-c3cc(F)c(F)c(F)c3F)sc2c1	75 (≈ 252 µM)	205 (≈ 690 µM)	
Fc1cc(-c2nc3ccccc3o2)c(F)c(Cl)c1F	66 (≈ 233 µM)	257 (≈ 906 µM)	
Cc1ccc2oc(-c3cc(F)c(F)cc3F)nc2c1	174 (≈ 661 µM)	173 (≈ 657 µM)	
Fc1cc(-c2nc3ccccc3s2)c(F)c(Cl)c1F	35 (≈ 117 µM)	225 (≈ 751 µM)	
c1ccc(-c2nc3ccccc3o2)cc1 [2-PHENYLBENZO[D]OXAZOLE]	> 500	> 500	
Cc1ccc2oc(-c3ccccc3)nc2c1	> 500	> 500	
Cc1ccc2oc(-c3cc(F)c(F)c(F)c3F)nc2c1	19 (≈ 67.6 µM)	> 500	
Cc1ccc2oc(-c3cccc(F)c3)nc2c1	383 (≈ 1690 µM)	> 500	
OC(c1ccc(Cl)cc1)(c1ccc(Cl)cc1)C(Cl)(Cl)Cl [DICOFOL]			LC50 (Tetranychus urticae [8]): 80.7 µg/mL (≈ 218 µM); RatioLC50 (Tetranychus urticae [9]): 18.65; LC50 (Tetranychus urticae [10]): 90.9 µg/mL (≈ 245 µM); RatioLC50 (Tetranychus urticae [11]): 1.13; LC50 (Tetranychus urticae [12]): 296 µg/mL (≈ 800 µM); LC50 (Tetranychus urticae [13]): 15.9 µg/mL (≈ 42.9 µM)
Fc1cc(-c2nc3cc(Cl)ccc3o2)c(F)c(Cl)c1F	37 (≈ 116 µM)	173 (≈ 544 µM)	
Fc1ccc(-c2nc3ccccc3s2)cc1F	< 125	> 500	
Cc1ccc2oc(-c3cc(F)c(F)c(Cl)c3F)nc2c1	35 (≈ 118 µM)	154 (≈ 517 µM)	LC50 (Tetranychus urticae [8]): 20.4 µg/mL (≈ 68.5 µM); Activity (Tetranychus urticae [14]): 93.7%; Activity (Tetranychus urticae [15]): 86.5%; Activity (Tetranychus urticae [16]): 108.8%; Activity (Tetranychus urticae [17]): 75.3%; Activity (Tetranychus urticae [18]): 71.1%; RatioLC50 (Tetranychus urticae [9]): 1.69; LC50 (Tetranychus urticae [10]): 17.1 µg/mL (≈ 57.4 µM); Activity (Tetranychus urticae [19]): 43.9%; Activity (Tetranychus urticae [20]): 51.4%; Activity (Tetranychus urticae [21]): 38.9%; Activity (Tetranychus urticae [22]): 93.3%; Activity (Panonychus citri): Active; RatioLC50 (Tetranychus urticae [11]): 0.84; LC50 (Tetranychus urticae [12]): 121 µg/mL (≈ 406 µM); LC50 (Tetranychus urticae [13]): 71.6 µg/mL (≈ 241 µM); Activity (Tetranychus urticae [23]): 65%
Fc1cc(-c2nc3ccccc3s2)c(F)c(F)c1F	102 (≈ 360 µM)	205 (≈ 724 µM)	
c1ccc(-c2nc3ccccc3s2)cc1 [2-PHENYLBENZO[D]THIAZOLE]	211 (≈ 999 µM)	> 500	
Cc1ccc2oc(-c3ccccc3F)nc2c1	88 (≈ 387 µM)	> 500	
Fc1cc(-c2nc3ccccc3o2)c(F)c(F)c1F	151 (≈ 565 µM)	351 (≈ 1310 µM)	
